Laboratory results taken from patent US20160166604A1, “Thiol-Sensitive Positive Inotropes” (priority 2005, published 2016).
Values joined by “and” are separate entries in the source; they are usually repeats but may differ in a detail not shown here. Equal entries are not always repeated. “Also recorded” adds a separate entry of the source.

Key:
[1] = tested on: isolated mouse ventricular myocytes; assay: Sarcomere shortening in field-stimulated isolated mouse ventricular myocytes; format: cell-based
Protocol: Wild type 2-4 month old mice were anesthetized with intraperitoneal pentobarbital sodium (100 mg/kg/ip). Hearts were perfused as previously described. Mongillo, M. et al., Circ. Res., 98, 226-234 (2006). To assess for sarcomere shortening, cells were imaged using field stimulation (Warner instruments) in an inverted fluorescence microscope (Diaphot 200; Nikon, Inc). Sarcomere length was measured by real-time Fourier transform (IonOptix MyoCam, CCCCD100M) and cell twitch amplitude is expressed as a percentage of resting cell length. Twitch kinetics was quantified by measuring the time to peak shortening and the time from peak shortening to 50% relaxation. For whole calcium transient measurements, myocytes were loaded with the Ca^2+ indicator fluo-4/AM (Molecular Probes, 20 μM for 30 min) and Ca^2+ transients were measured under field-stimulation at 0.5 Hz in perfusion solution by confocal laser scanning microscope (LSM510, Carl Zeiss). Digital image analysis used customer-designed programs coded in Interactive Data Language (IDL).
Nitroxyl (HNO) confers positive inotropy in vivo. Here, it was determined whether HNO action stems from a direct influence on sarcoplasmic reticulum (SR) Ca^2+ cycling, involving enhanced Ca^2+ release from ryanodine receptors (RyR2). Myocytes were isolated from ST mice, suspended in Tyrode's solution (1 mM Ca^2+) and field stimulated (0.5 Hz, 25° C.). Sarcomere shortening (SS) was assessed by real-time image analysis, Ca^2+ transients from Indo-1 fluorescence. RyR2 activity was determined by optical imaging of Ca^2+ release from single Ca^2+ release units.

cAMP = cAMP FRET imaging in neonatal rat cardiomyocytes; format: cell-based; details: 1 mM AS, n=23, p=NS
Protocol: Primary cultures of cardiac ventricular myocytes from 1-3 days old Sprague Dawley rats (Charles River Laboratories, Wilmington, Mass.) were prepared as described. Dostal, D. E. et al., Am. J. Physiol., 263, […]-[…] (1992). Cells were transfected with a FRET-based sensor for cAMP (Zaccolo, M. et al., Science, 295, 1711-1715 (2002)) and imaged 48 hrs after transfection. During the experiments, cells were continuously perfused with HEPES buffered Ringer's modified saline (1 mmol/LCaCl2) at room temperature. Cells were imaged on an inverted Olympus IX50 microscope upon excitation at 430 nm. Mongillo, M. et al., Circ. Res., 98, 226-234 (2006). Image analysis was performed by using ImageJ (Rasband, W. S., ImageJ, National Institutes of Health, Bethesda, Md., USA). At each time point, FRET values were measured as the 480 nm/535 nm emission ratio intensity (R) and were normalized to the 480 nm/535 nm value at time 0s (R0). Agents that increase peak Ca^2+ transients coupled to increased sarcomere shortening often do so via a rise in intracellular cAMP and subsequent activation of protein kinase A ([…]. et al., Curr. Med. Chem., 10, 967-981 (2003). To test whether this applied to AS, real-time imaging of cAMP on transfected neonatal rat cardiomyocytes was performed with a cAMP FRET-probe. Zaccolo, M. et al., Science, 295, 1711-1715 (2002). Upon exposure to 1 mM AS, the FRET signal was unchanged (0.3%±0.1%, n=23, p=NS), whereas subsequent application of norepinephrine (10 μM) or phosphodiesterase inhibitor IBMX (100 μM) both increased it by 12% (p<10^-6) (FIG. 2A). Pre-treatment of adult mouse myocytes with the PKA inhibitor […]

[2] = End-diastolic pressure-volume relationship (EDPVR) in chronically instrumented dogs with pacing-induced cardiac failure; format: in vivo; details: CHF dog preparations
Protocol: Adult male mongrel dogs (22-25 kg) were chronically instrumented for pressure-dimension analysis as described. See, Paolocci et al., “Positive Inotropic and Lusitropic Effects of HNO/NO− in Failing Hearts: Independence from Beta-Adrenergic Signaling,” Proc. Natl. Acad. Sci. USA., 100, 5537-5542 (2003); and Senzaki et al., Circulation, 101, 1040-1048 (2000). Animals were anesthetized with 1% to 2% halothane after induction with sodium thiopental (10-20 mg/kg, i.v.). The surgical/experimental animal protocol was approved by the Johns Hopkins University Animal Care and Use Committee. […] Cardiac failure was induced by rapid ventricular pacing for 3 weeks as described. See, Paolocci et al., supra, and Senzaki et al., supra.
Hemodynamic data were digitized at 250 Hz. […] These relations strongly correlate with results from pressure-volume data in normal and failing hearts, as previously validated. Cardiovascular function was assessed by stroke dimension, fractional shortening (stroke dimension/end-diastolic dimension [EDD]), estimated cardiac output (stroke dimension×HR), peak rate of pressure rise (dP/dtmax), end-systolic elastance (Ees, slope of end-systolic pressure-dimension relation [ESPDR]), the slope of dP/dtmax-EDD relation (DEDD) (see, Little, Circ Res., 56:808-815 (1985)), pre-recruitable stroke work (PRSW), (based on dimension-data), estimated arterial elastance (Ea, end systolic pressure/stroke dimension) and estimated total resistance (RT, […]). Ees, DEDD and PRSW provide load-insensitive contractility measures.
The end-diastolic pressure-volume relationship (EDPVR) was determined applying non-linear regression analysis to the end-diastolic pressure and volume points (Ped and Ved, respectively), according to Kass, Cardiol Clin., 18, 571-86 (2000) (Review).
In order to evaluate the impact of each pharmacological intervention on the EDPVR, changes in end-diastolic pressure from baseline (ΔPed) at volumes providing baseline end-diastolic pressure of […] mmHg EDP (V10, V15, V20, respectively) were determined (FIG. 5).

[3] = Kinetics of AS decomposition in Tyrode solution; format: physicochemical; details: after ~1000 sec (16 min); Tyrode solution pH 7.4, room temperature; identical for 0.1-1 mM AS
Protocol: FIG. IA-FIG. 1D show the effects of HNO donor AS on sarcomere shortening in isolated mouse ventricular myocytes.
At physiological pH, AS decomposes to produce HNO and nitrite. Whether nitrite could play a role in the observed responses was therefore tested. […] Identical results were obtained for 0.1-1 mM AS. Thus, at time of functional analysis, 25-250 μM NO2^− is expected; however, such levels (and higher or lower doses) had no effect on sarcomere shortening (FIG. 1H).

increase in sarcomere shortening with guanylate cyclase inhibition ([1]; AS 1 mM with ODQ, n=15, p=NS vs. AS 1 mM): 157±40%
nitrite generation on AS decomposition [3]: 25%
SMILES: [Na+].[Na+].[O-][N+]([O-])=NO [AS, Angeli's salt]
myocyte relaxation hastened (time to 50% re-lengthening) ([1]; AS): 10-20%
time until response plateaued ([1]; AS): 10 to 15 min
increase in sarcomere shortening ([1]; AS 0.5 mM): 73±31% and ~100%
contractility response (sarcomere shortening) after GSH pre-treatment ([1]; AS 0.5 mM after GSH ethyl ester 4 mM for 3 hrs): 57±19%
increase in sarcomere shortening ([1]; AS 1 mM): 131±31% and 117±25% and ~100%
AS concentration above which myocyte contractility rose ([1]; AS 10^-6 to 10^-3 M, C57/BL6 myocytes): > 100 µM
effect on sarcomere shortening ([1]; AS <0.1 mM): no effect
effect of co-application on ISO (2.5 nM)-stimulated sarcomere shortening ([1]; DEA/NO 0.25 mM, AS 0.5 mM): doubled
sarcomere shortening response after GSH pre-incubation ([1]; GSH 4 mM for 3 hrs, compared with 1 mM AS alone, n=14): 58±19%
AS inotropy on co-infusion of N-acetyl-L-cysteine ([1]; NAC 3 mM): abolished
effect of PKG inhibitor Rp-8Br-cGMPs on the agent's inotropy ([1]; Rp-8Br-cGMPs 10 μM pre-treatment): did not alter; also recorded: no impact
effect of PKA inhibitor Rp-CPT-cAMPs on the agent's enhancement of sarcomere shortening ([1]; Rp-CPT-cAMPs 100 μM pre-treatment): did not alter
reversibility of response after discontinuation ([1]; at ≦500 μM, after a similar time period): fully reversible
AS inotropy on co-treatment with thapsigargin ([1]; thapsigargin 3 μM, n=16): 52±14%
change of cAMP FRET signal (cAMP): 0.3%±0.1%
effect on end-diastolic pressure-volume relationship (EDPVR) [2]: declined significantly
